Like-named read-outs stand apart in the source and are kept apart here. Values belong to the compound of their own block, whether it stands above or below them. Non-standard residues stand in square brackets, D forms with d. Residues, ends and D or L forms follow the SMILES beside them. *: point of attachment. Sta = CC(C)C[C@H](N)[C@@H](O)CC(=O)O; Isovaleryl = CC(C)CC(=O)*
Columns and labels:
[1] = system: acid proteases; details: cited from earlier work
[2] = molecular target: T1, human renin (Homo sapiens, UniProt P00797); assay: renin inhibition, methods of published European specification; type: biochemical
T1 sequence (P00797 67-406): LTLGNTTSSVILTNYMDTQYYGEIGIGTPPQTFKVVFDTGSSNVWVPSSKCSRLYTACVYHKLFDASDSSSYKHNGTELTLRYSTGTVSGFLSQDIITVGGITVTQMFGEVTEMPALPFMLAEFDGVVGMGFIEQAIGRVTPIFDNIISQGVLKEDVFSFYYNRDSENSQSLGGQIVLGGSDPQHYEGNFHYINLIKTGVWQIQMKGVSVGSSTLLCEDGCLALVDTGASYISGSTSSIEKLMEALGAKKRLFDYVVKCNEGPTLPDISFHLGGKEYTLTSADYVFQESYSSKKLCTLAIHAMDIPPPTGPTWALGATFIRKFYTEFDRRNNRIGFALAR
Text: (§1) This compound is the subject of Example 1 below.

[3] = system: baboon renin; assay: renin inhibition, baboon renin; type: biochemical; details: preliminary results, read-out: IC50 against baboon renin (preliminary results)
Text: as §1
The following are the fully detailed examples referred to earlier. The activity of H-176 (Example I) has already been given.

Compound: CC(C)CC(=O)N[C@H](C(=O)N[C@H](C(=O)N[C@@H](CC(C)C)[C@@H](O)CC(=O)N[C@@H](C)C(=O)N[C@@H](CC(C)C)[C@@H](O)CC(=O)O)C(C)C)C(C)C [pepstatin, iso-valeryl-L-valyl-L-valyl-S,S,-statyl-L-alanyl-S,S-statine] (Isovaleryl-VV[Sta]A[Sta]-OH)
- inhibition of acid proteases (pepsin, cathepsin D, chymosin, renin) [1]: inhibits acid proteases in general

- IC50 ([2]; read-out: IC50 against human renin): 0.016 µM
Compound: H-HPFH[Sta]VIH-OH [Example H-176]

- IC50 ([2]; preliminary results, read-out: IC50 against human renin (preliminary results)): 0.009 µM
- IC50 [3]: 0.012 µM
Compound: H-PHPFH[Sta]VIHK-OH [Example H-189]
